Experiments:
Format in all cases: in vivo
zebrafish (Danio rerio) [1] = test: Open Field test in zebrafish; settings: ip
Procedure: (§1) The tested substances were injected into the zebrafish intraperitoneally (ip) using an insulin syringe (0.5 ml, 30 g) 10 minutes before the test. The saline solution (0.9% NaCl) was used as a solvent. Anesthesia and immobilization of the animals were achieved by placing them in water at a temperature of 10° C. Control group fish received intraperitoneal injections of an equivalent volume of solvent, also after going through a pre-cooling procedure.
A base, back, and side walls of the aquarium were made of matte black plastic; the front panel (shorter wall) was made of transparent Plexiglas. The setup for the Light/Dark preference test consisted of three main parts: a launch compartment, a light compartment made of white plastic, and a dark compartment made of black plastic. The bright lighting in these tests was provided by a lamp on a stand (LED lamp PL, 11 W, light flux≈600 Lm, about 500 Lx directly above the water surface), which was attached to the upper part of the aquarium.
The open field test was performed as described in Maximino et al., 2013. A video recording (background shooting) was started 20-30 seconds before the zebrafish were placed in the test aquarium. The experimental zebrafish was placed in an open field (“OF”) aquarium using a net. The recording was being conducted for five minutes. The test was carried out using EthoVision XT software package (Noldus). The software registered the distance covered by the animal, its speed, the number of visits to the three conventional zones of the aquarium: “bottom,” “center,” and […] (lower, middle, and upper thirds of the aquarium, respectively), the time spent in these zones, and the latency of a visit to the middle and to the surface of the aquarium.

zebrafish (Danio rerio) [2] = test: Shoaling behavior test in zebrafish; settings: ip, DKTE 1 mg/kg, vs control
Procedure: as §1
A Plexiglas container with a removable partition (shown in FIG. 4) was used as a setup for investigating the shoaling behavior of zebrafish. A shoal of 5 adult Danio rerio specimens was placed into in the small compartment; and the test fish was placed in a large compartment. Diffused lighting in this installation was provided by the usual lighting of the room (about 200 Lx).
The shoaling behavior test was performed as described in Parker et al., 2014. (Parker et al. (2014) The utility of zebrafish to study the mechanisms by which ethanol affects social behavior and anxiety during early brain development. Prog. Neuro-Psychopharmacology Biol. Psychiatry. 94-100). The video recording began simultaneously with placing the zebrafish in the set-up and recorded for 5 minutes. The videos were processed using RealTimer (OpenScience Ltd., Moskow, Russia). During the processing of the records, the residence time and the number of visits to the three conventional zones of the aquarium wall (near the “shoal” in the middle of the aquarium, and near the opposite side; all three were equal in size) were recorded.

BALB/C mice = test: Porsolt swim test (two-day modification) in mice; settings: ip; Diazepam 0.75 mg/kg
Procedure: After an adaptation period, the test substance was intraperitoneally injected into mice. Behavioral parameters were measured in 30 minutes after injection. The tests were administered as follows: day 1—the Open field test, day 3—the Elevated plus maze test, day 5—the Marble burying test, days 12-13—the Porsolt swim (two-day modification) test.
In the Porsolt Swim test, two tests were conducted in two days. The installation is a transparent cylinder, 30 cm in height, 10 cm in diameter, filled with water (temperature about 21-23° C.) to the mark of 25 cm height. On the first day each animal was placed into the cylinder for 10 minutes. Behavioral parameters were not registered. On the second day, the animals were placed into the cylinder for 5 minutes. The following parameters were measured: duration of active (vigorous movements of all limbs) and passive (weak movements of hind limbs) swimming, as well as immobility (immobilization) (Porsolt et al. (1977) Behavioral despair in mice: a primary screening test for antidepressants. Arch Int Pharmacodyn Ther. 229(2):327-36). After each test, the mice were placed into a heated cell to dry.

[3] = test system: Wistar rats after chronic unpredictable mild stress; test: CUMS model: Elevated Plus Maze test
Procedure: During stress, the animals were placed in individual cells and exposed to stressful conditions each day for 26 days. Two stressors were used daily, applied in the following order: • Day 1. 10 am-6 pm, rats were placed in a cold room for an hour. From 6 PM to 10 am the lights were turned on and off every 2 hours. • Day 2. 10 am-6 pm, cage tilted to 45°. From 6 PM to 10 am water deprivation. • Day 3. 10 am-6 pm, stroboscopic light. From 6 PM to 10 am the light was left on overnight. • Day 4. 10 am-6 pm, wet bedding. From 6 PM to 10 am the animals were put in a small mouse cage. • Day 5. 10 am-6 pm, no bedding. From 6 PM to 10 am the lights were turned on and off every 2 hours. • Day 6. 10 am-6 pm, a new rat was placed in the cage (6-month-old). From 6 PM to 10 am the light was left on overnight. • Day 7. 10 am-6 pm, white noise. From 6 PM to 10 am a stroboscopic light was turned on at night. • Day 8-26. Repetition of previously used stressors in the specified sequence.
Experimental substances were administered daily starting from the 58-59 day of the experiment. The administration took place 30 minutes before the start of behavioral testing. On days when there were no tests, the substances were administered in the morning.
The Elevated Plus Maze test was used to assess the level of anxiety, motor, and exploratory activity of laboratory animals. The apparatus consisted of two closed and two open arms opposite to each other (arm's length 45 cm) with the height of the sides of the closed arm −10 cm. The entire installation was raised on a stand 70 cm above the base. Rats were placed in the center of the maze with their heads facing the open arm. Within 5 minutes the number of exits to open arms and time spent in them, the number of transitions between arms, the time of rest, the duration and number of grooming acts, the number of stretch-attend postures into the open arms of the maze, and the number of rears were recorded. Normally, rodents tend to stay in the dark arms.

With `CN1C(=O)CN=C(c2ccccc2)c2cc(Cl)ccc21` [Diazepam] the “distance covered during the open field test” value (zebrafish (Danio rerio) [1]; diazepam 10 mg/kg) was “tended to cover a smaller distance”, the “average distance covered / track length (locomotor activity)” value (zebrafish (Danio rerio) [1]; diazepam 1.25, 5, 10, fluvoxamine 5, 10, ACZ-10 0.6, BCM-7 5, FQSE 1 and 10, DKTE 1, WDQV 10 mg/kg) was “did not demonstrate any significant effects” and the “behavior in the open field test” value (zebrafish (Danio rerio) [1]; diazepam 1.25 and 5 mg/kg) was “No effects”. For the same molecule, the “time spent in the compartment near the shoal” value (zebrafish (Danio rerio) [2]; diazepam 1.25 mg/kg, ACZ-10 0.6 mg/kg, BCM-7 5 mg/kg) was “statistically significant decrease”, the “time spent outside the shoaling compartment (near the wall opposite to the shoal)” value (zebrafish (Danio rerio) [2]; diazepam 5 mg/kg, FQSE 10 mg/kg) was “increase” and the “tested parameters (duration of active and passive swimming, immobility time)” value (BALB/C mice) was “did not lead to the changes in any tested parameter”. The “result obtained in EPM (1 administration)” value ([3]; CUMS, FQSE 0.5 mg/kg, Diazepam) was “sedative effects”, the “time spent on the open arms” value ([3]; Diazepam 0.5 mg/kg i.p., 1 injection, vs stressed animals treated with solvent) was “increase” and the freezing time ([3]; Diazepam 0.5 mg/kg i.p., vs control group) was “increase of freezing”.
